Laboratory results as given in patent publication US20020004198A1, “Novel anti-infectives” (priority 1998, published 2002).

Experiments:
MCP protein = MCP protein (Human cytomegalovirus, UniProt P16729); conditions: increasing concentrations of peptide (0.1 to 10 μg), FIG. 2
Description: To investigate the interaction between the UL80.5 peptide and MCP, an ELISA assay was developed. For this purpose, a 96 well microtiter plate (Nunc—Immuno Maxisorp) was coated with 100 μl per well of a 1/50 dilution (in carbonate buffer: 40 mM NaCO3, 36 mM NaHCO3, 3mM Na Azide pH 9.6) of recombinant baculovirus supernatant containing MCP (prepared as described above). The plate was incubated at 37° C. for 2 hours. The plate was then washed 4-5 times in 200 μl per well of PBS (1.37 M NaCl, 80 mM Na2HPO4, 26.8 KCl, 14.7 mM KH2PO4, pH 7.0) containing 0.2 % Triton X-100, followed by incubation with 0.1 μg of UL80.5 peptide (SEQ ID NO:3) diluted in carbonate buffer for 1 hour at 37° C. The plate was then washed to remove any unbound peptide, and subsequent nonspecific binding blocked by the addition of 200 μl of 1% casein block (Pierce; Rockford, Ill.) 3 times for 30 seconds each at room temperature. The plate was washed as before, and 200 μl of a primary antipeptide antibody (prepared as described above) diluted 1/5000 in wash buffer (PBS containing 0.2% Triton X-100) was added and incubated for 1 hour at room temperature. […] Following a 30 minute room temperature incubation in the dark, the plate was read at 450 nm on a microtiter plate reader. […]

[1] = target: T1, UL80.5 gene product/MCP interaction (Human cytomegalovirus, UniProt P16729); test: competitive binding assay (ELISA): inhibition of UL80.5 gene product/MCP interaction; parameters: species or system CMV; conditions: 0.1 μg of UL80.5 peptide; compound 0.4 to 50 μM; average of six independent experiments (FIG. 3); read-out: average IC50 (concentration at which binding is reduced by 50%)
T1 construct: Recombinant baculovirus Autographa californiica nuclear polyhedrosis virus expressing full-length CMV MCP; made in house; host or cells: Sf9 insect cells infected with recombinant baculovirus; crude clarified supernatant used for coating
Description: Inhibitor activity was detected using a competitive binding assay. Scaffolding polypeptide and the compound to be tested are added sequentially or simultaneously to a microtiter plate precoated with full-length MCP. A primary antibody specific for the scaffolding polypeptide is then added, followed by a labeled secondary antibody directed against the primary antibody, and signal from the label measured. If the compound is unable to compete for binding, then the peptide binds to MCP and a signal is detected. […] In all assays a background control is included in which no peptide is added, but all other reagents are identical. In addition, a set of samples in which no compound is added is also included. This value is set at 100% and the percent inhibition is calculated relative to this number. […]
In order to determine if potential inhibitors of UL80.5 gene product/MCP interaction could be detected with this assay, compounds were assayed for activity.
In order to assay for inhibitors in a high throughput manner, the ELISA assay described above was modified. […] The plates were washed 6 times, and 50 μl of Wallac enhancement solution (Wallac; Gaithersburg, Md.) added, and the plate shaken for 10 minutes, before being read on a Wallac VICTOR microtiter plate reader (Wallac; Gaithersburg, Md.).

Compound	concentration of peptide at which 50% binding to MCP occurred (MCP protein) [µg]	IC50 [1] [µM]
NH2-Ala-Ser-Gln-Ser-Pro-Pro-Lys-Asp-Met-Val-Asp-Leu-Asn-Arg-Arg-Ile-Phe-Val-Ala-Ala-Leu-Asn-Lys-Leu-Glu-COOH [UL80.5 peptide]	0.3	
NCCc1c[nH]c2ccc(-c3ccc4ccccc4c3)cc12 [Target compound 6]		4.2
